Test results: US20060134719A1, “Novel serine protease” (priority 2002, published 2006)
*: point of attachment. AMC = Cc1cc(=O)oc2cc(N*)ccc12; Boc = CC(C)(C)OC(=O)*; OBn = c1ccc(CO*)cc1

How the values were obtained:
[1] = target: T1, signal-FLAG-ARS-SerPD culture supernatant (SEQ ID NO:2 237th to 531st) (Homo sapiens, UniProt Q7Z410); assay: Enzymatic cleavage of MCA-labeled synthetic peptides by signal-FLAG-ARS-SerPD culture supernatant; assay type: biochemical; conditions: substrate 100 μM in TBS pH 7.5, 37° C.; never obtained with blank vector supernatant
T1 construct: made in house; host or cells: HEK293-EBNA
T1 sequence (Q7Z410 with tags, fused parts or gaps): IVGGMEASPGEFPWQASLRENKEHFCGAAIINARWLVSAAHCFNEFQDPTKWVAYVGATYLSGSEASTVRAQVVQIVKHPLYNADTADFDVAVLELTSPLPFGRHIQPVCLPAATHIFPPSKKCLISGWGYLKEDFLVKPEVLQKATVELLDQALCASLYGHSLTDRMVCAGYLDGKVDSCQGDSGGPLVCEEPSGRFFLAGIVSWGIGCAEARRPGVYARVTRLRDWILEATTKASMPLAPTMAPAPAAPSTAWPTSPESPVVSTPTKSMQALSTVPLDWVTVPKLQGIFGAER
Experimental: (§1) The expression plasmids prepared in Examples 3 to 5 were introduced into HEK293-EBNA cell (Invitrogen) using a transfection reagent (FuGENE™6 transfection reagent; Roche) according to the instruction attached thereto. After the introduction of the plasmids, the culture medium was replaced with a serum-free culture medium within 12 to 16 hours and further incubated for another 48 to 60 hours. The culture supernatant was collected and resulting each liquid culture was centrifuged (3000 rpm, 10 minutes) with a centrifuge (Type 8800; Kubota) to obtain culture supernatants. After removing the culture supernatants, the remaining cells were washed with phosphate buffer (PBS; 10 mM sodium phosphate, pH 7.5) and then recovered by scraping from the culture plate by pipetting with phosphate buffer, and centrifuged with a centrifuge (Type 8800; Kubota) at 3000 rpm for 10 minutes. The resulting precipitate was suspended in phosphate buffer, which was defined as the cell fraction. The culture supernatants obtained by the introduction of pCEP-ARSF-FLAG, pCEP-signal-FLAG-ARS-extracellular and pCEP-signal-FLAG-ARS-SerPD are referred to as ARS-FLAG culture supernatant, signal-FLAG-ARS-extracellular culture supernatant, signal-FLAG-ARS-SerPD culture supernatant and signal-FLAG-ARS-SerPDO culture supernatant, respectively.
(§2) The method for detecting enzymatic cleavage activity using a synthetic peptide labeled with MCA (4-methyl-coumaryl-7-amide) in the C terminus was according to the method reported in an academic paper (Yasuoka, S. et al., Am. J. Respir. Cell Mol Biol., Vol. 16, 300-308, 1997), unless otherwise described. […] Subsequently, the fluorescence of AMC (7-amino-4-methyl-coumarin) released from the synthetic peptide by enzymatic cleavage was measured at a wavelength of 460 nm for measurement, using an excitation wavelength of 390 nm with a fluorescent plate reader (Fluostar, SLT).

[2] = test system: ARS-FLAG culture supernatant (recombinant ARS protein, SEQ ID NO:2 1st to 531st); assay: Enzymatic cleavage of MCA-labeled synthetic peptides by ARS-FLAG culture supernatant; assay type: biochemical, human; conditions: substrate 100 μM in TBS pH 7.5, 37° C.; never obtained with blank vector supernatant
Experimental: as §1, §2

Substance	cleavage activity of synthetic peptide (fluorescence of released AMC) [1]	cleavage activity of synthetic peptide (fluorescence of released AMC) [2]
Boc-Phe-Ser-Arg-{AMC}	showed the cleavage activity	showed the cleavage activity
Boc-Gln-Arg-Arg-{AMC}	showed the cleavage activity	showed the cleavage activity
Boc-Glu(OBn)-Ala-Arg-{AMC}	showed the cleavage activity	showed the cleavage activity
